Reference: PMC4642645, “Oxacillin sensitization of methicillin-resistant Staphylococcus aureus and methicillin-resistant Staphylococcus pseudintermedius by antisense peptide nucleic acids in vitro” (BMC Microbiology, 2015)
Several values for one entry are separate records, joined by “and”; a condition that tells them apart may be missing. Equal entries are not always repeated.

Assays:
NCTC 13142 [1] = assay: Oxacillin MIC and sensitization broth growth assay (broth microdilution, CLSI); assay type: cell-based, Staphylococcus aureus (MRSA); settings: for Oxacillin MIC with anti-mecA PNA treatment: NCTC 13142, 5 μM PNA; for Sensitization to oxacillin in broth microdilution assays: NCTC 13142, PNAs with EJH-L1 or HIV-1 Tat carrier, data not shown
Procedure: (§1) The MRSA strain NCTC 13142 from Public Health England Culture Collections is a UK epidemic strain type EMRSA-15, SCCmec Type IV, and the MRSP strain HH-1 was isolated from a canine skin infection and is ST71, SCCmecII-III [19]. Bacteria were cultured on Columbia base agar (Oxoid, Basingstoke, UK) supplemented with 5 % horse blood (Oxoid) and 6 μg/ml oxacillin (Sigma Aldrich, UK) at 35 °C for 20 h. Overnight broth cultures were prepared from single bacterial colonies inoculated in 3 ml Mueller Hinton broth (MHB, Oxoid) supplemented with 6 μg/ml oxacillin and incubated at 35 °C for 20 h at 180 rpm on a rotary shaker.
(§2) The MIC of oxacillin was determined by broth microdilution according to CLSI guidelines. Briefly, overnight broth cultures of MRSA and MRSP were standardized to OD625 = 0.08–0.09 (equivalent to 10^8 CFU/ml) in MHB and further diluted 100-fold to obtain 10^6 CFU/ml. The bacterial suspension was then inoculated at 50 μl per well to a final concentration of 5 × 10^5 CFU/ml. Two-fold serial dilutions of oxacillin (2–512 μg/ml) were added to bacterial cultures at 50 μl per well to a final volume of 100 μl per well, and 96 well plates were incubated at 35 °C for 24 h. MICs were visually scored.
(§3) Overnight broth cultures were adjusted to 5 × 10^5 CFU/ml per well of a 96 well plate as described above and used either in a broth growth assay or a viable count assay. The broth growth assay was used as an initial screen of PNA efficacy because it was simple to carry out. […] Anti-mecA PNAs were added at either 2.5 or 5 μM. After incubation at 35 °C for 24 h, the MIC of oxacillin in combination with the PNAs in broth cultures were scored visually as recommended by CLSI guidelines.

HH-1 [2] = assay: as above; assay type: cell-based, Staphylococcus pseudintermedius (MRSP); settings: for Oxacillin MIC with anti-mecA PNA treatment: HH-1, 2.5 μM PNA; for Sensitization to oxacillin in broth microdilution assays: HH-1, PNAs with EJH-L1 or HIV-1 Tat carrier, data not shown
Procedure: as §1, §2, §3

mecA mRNA [3] = assay: mecA mRNA level by RT-qPCR; assay type: cell-based, Staphylococcus pseudintermedius (MRSP) HH-1; settings: HH-1, 2.5 μM PNA, no oxacillin, normalized to proC and pyk, average, n = 3
Procedure: (§4) Growth of cultures in a 96 well plate was monitored by reading the optical density at 550 nm every 5 min, after shaking for 5 s in a microplate reader (Spectramax 340PC, […]). Cultures were harvested when the untreated control culture increased in OD550 ≈ 0.1. Cultures with the same PNA treatment but in different wells across the 96 well plate were pooled for total RNA extraction and DNase I treatment (Ribopure™ Bacteria kit, Life Technologies). RNA was checked for gDNA contamination by qPCR using gyrA primers (Additional file 1: Table S1) and SsoFast™ EvaGreen® Supermix (Bio-Rad) before cDNA synthesis using 50 ng RNA and iScript™ Reverse Transcription Supermix (Bio-Rad). Samples of cDNA were diluted 10-fold and 4 μl used in each qPCR reaction. Non-template controls were included for each primer pair in each run, and technical duplicates for each sample were included in each run.
(§5) Primer pairs for qPCR were designed by Primer3 with a Tm of 60 °C and product sizes of 100–200 bp (Additional file 1: Table S1). […] Primer efficiencies were determined using 10-fold serial dilutions of cDNA (10 pg-1 μg). […]
Total RNA and cDNA were prepared as described above. Raw Cq values were analysed in qbase + (Biogazelle, Belgium) with user-defined primer efficiencies (Additional file 1: Table S1) and expression stabilities (M value) of each candidate reference gene fabD, gyrA, proC, pta, pyk, rho, sodA, and tpiA were calculated as the average pairwise variation for each gene with all other tested genes. […] Stepwise exclusion of the gene with the highest M value allowed ranking of the tested genes according to their expression stability, and from this the optimal number of reference genes was calculated. […] Relative mRNA levels were then calculated as induced normalized Cq/uninduced normalized Cq, and analysed with paired Student’s t-Test in Microsoft Excel.

HH-1 [4] = assay: Oxacillin sensitization viable count assay (CFU on oxacillin plates); assay type: cell-based, Staphylococcus pseudintermedius (MRSP); settings: for Sensitization to oxacillin (CFU reduction), result in words: HH-1, A73 and scrA 1, 2.5, 5 μM, Z46 0.5, 1, 2.5 μM, 6 h, plated on 16 μg/ml oxacillin, n = 3
Procedure: (§6) The viable count assay is more sensitive than the broth assay and was used to assess the effects of PNAs that performed well in the initial screen described above. In the viable count assay, 5 × 10^5 CFU/ml per well of culture was treated either with 2.5, 5 and 7.5 μM of PNA for NCTC 13142, or 1, 2.5 and 5 μM of PNA for HH-1 in MHB at 35 °C for 6 h. […] Agar plates were incubated at 35 °C for 24 h, and dilutions resulting in 30–300 colonies per plate were used to determine the viable count. Experimental repeats were carried out on separate days, and reductions in CFU of treated cultures were normalized to CFU of the untreated control culture on the day. Statistical analysis of CFU reductions was carried out with the paired Student’s t-Test in Microsoft Excel.

NCTC 13142 [5] = assay: as above; assay type: cell-based, Staphylococcus aureus (MRSA); settings: for Sensitization to oxacillin (CFU reduction), result in words: NCTC 13142, PNA 2.5, 5, 7.5 μM (Z46: 7.5 μM)
Procedure: as §6

mecA mRNA [6] = assay: mecA mRNA level by RT-qPCR; assay type: cell-based, Staphylococcus aureus (MRSA) NCTC 13142
Procedure: as §4, with “Non-template controls were included for each primer pair in each run, and technical duplicates for each sample were included in each run.” left out
as §5
Total RNA and cDNA were prepared as described above. Raw Cq values were analysed in qbase + (Biogazelle, Belgium) with user-defined primer efficiencies (Additional file 1: Table S1) and expression stabilities (M value) of each candidate reference gene fabD, gyrA, proC, pta, pyk, rho, sodA, and tpiA were calculated as the average pairwise variation for each gene with all other tested genes. […]

HH-1 [7] = assay: Light microscopy of Gram stained cells (cell morphology); assay type: cell-based, Staphylococcus pseudintermedius (MRSP); settings: HH-1, 2.5 μM PNA, 6 h at 35 °C, 1000 × magnification
Procedure: (§7) Bacterial cultures were treated with anti-ftsZ PNA Z46 in broth as described in the viable count assay. After 6 h at 35 °C, cultures were pelleted, washed once in PBS, and re-suspended in 1/10 of original volume of the culture in PBS. Ten microliter aliquots were heat-fixed, Gram stained, and viewed under a light microscope (Olympus BX60) at 1000 × magnification. Images were captured using the Image-Pro Plus 5.0 (MediaCybernetics), and counting of purple and pink cells were carried out using ImageJ 1.44o (National Institute of Health, USA).

NCTC 13142 [8] = assay: Growth inhibition assay (OD550 growth curves); assay type: cell-based, Staphylococcus aureus (MRSA); settings: NCTC 13142, MHB with 6 μg/ml oxacillin, PNA 0–7.5 μM, 35 °C, 6 h, OD550, n = 3
Procedure: (§8) Anti-ftsZ PNAs were tested for effects on growth. Overnight MHB cultures were adjusted to 5 × 10^5 CFU/ml per well of a 96 well plate in MHB supplemented with 6 μg/ml oxacillin as described above. Anti-ftsZ PNA was added to final concentrations of 0, 1, 2.5, 5, 7.5 μM and incubated in a microplate reader (Spectramax 340PC, Molecular Devices) at 35 °C for 6 h. The optical density of the cultures was monitored at 550 nm with readings every 5 min after shaking for 5 s.

NCTC 13142 [9] = assay: Light microscopy of Gram stained cells (cell morphology); assay type: cell-based, Staphylococcus aureus (MRSA); settings: NCTC 13142, 7.5 μM PNA, 6 h at 35 °C, 1000 × magnification
Procedure: as §7

HH-1 [10] = assay: Growth inhibition assay (OD550 growth curves); assay type: cell-based, Staphylococcus pseudintermedius (MRSP); settings: HH-1, MHB with 6 μg/ml oxacillin, PNA 0–7.5 μM, 35 °C, 6 h, OD550, n = 3
Procedure: as §8

[11] = MHB, 35 °C, 24 h, scored visually, n=2
[12] = 6 h, plated on 16 μg/ml oxacillin, n = 3

Compound: Cc1onc(-c2ccccc2)c1C(=O)N[C@@H]1C(=O)N2[C@@H]1SC(C)(C)[C@@H]2C(=O)O [Oxacillin, oxacillin]
- Oxacillin MIC (NCTC 13142 [1]; NCTC 13142, 0 μM PNA, MHB, 35 °C, 24 h, scored visually, n=2): 256 µg/mL and 512 µg/mL
- MIC (NCTC 13142 [1]; Staphylococcus aureus, NCTC13142, 24 h, NCTC 13142, 0 μM PNA, MHB, 35 °C, 24 h, scored visually, n=2): ≥ 256 µg/mL
- Oxacillin MIC (HH-1 [2]; HH-1, 0 μM PNA, MHB, 35 °C, 24 h, scored visually, n=2): 512 µg/mL
- MIC (HH-1 [2]; Staphylococcus pseudintermedius, 24 h, HH-1, 0 μM PNA, MHB, 35 °C, scored visually, n=2): ≥ 256 µg/mL

Compound: KFFKFFKFFK-O-caatatcctc-CONH2 [A101, anti-mecA PNA (−10 to −1) conjugated to cell-penetrating peptide …]
- Oxacillin MIC with anti-mecA PNA treatment (NCTC 13142 [1]; [11]): 512 µg/mL
- Oxacillin MIC with anti-mecA PNA treatment (HH-1 [2]; [11]): 256 µg/mL

Compound: KFFKFFKFFK-O-cactataatc-CONH2 [scrA]
- Reduction of mecA transcripts (mecA mRNA [3]): did not have a significant effect
- Sensitization to oxacillin (CFU reduction), result in words (HH-1 [4]): significant sensitization
- Sensitization to oxacillin (CFU reduction), result in words (NCTC 13142 [5]; [12]): did not have an effect

Compound: KFFKFFKFFK-O-catcaatatc-CONH2 [A73, anti-mecA PNA (−7 to +3) conjugated to cell-penetrating peptide …]
- Reduction of mecA transcripts (mecA mRNA [3]): 40%
- Reduction of mecA transcripts (mecA mRNA [3]; listed as Anti-mecA PNA): reduced
- Oxacillin MIC with anti-mecA PNA treatment (NCTC 13142 [1]; [11]): 128 µg/mL
- Sensitization of broth cultures to oxacillin (NCTC 13142 [1]; NCTC 13142, 2.5–5 μM PNA, initial screening): 4–8 fold
- Oxacillin MIC with anti-mecA PNA treatment (HH-1 [2]; [11]): 64 µg/mL
- Sensitization of broth cultures to oxacillin (HH-1 [2]; HH-1, 2.5–5 μM PNA, initial screening): 4–8 fold
- MRSP cells killed by oxacillin (HH-1 [4]; 2.5 μM PNA, 6 h at 35 °C, plated on MH agar with 16 μg/ml oxacillin, relative to untreated control): 92%
- Sensitization to oxacillin (CFU reduction), result in words (HH-1 [4]): significantly sensitized
- mecA mRNA, result in words (mecA mRNA [6]; MRSA, 7.5 μM PNA, p < 0.05): reduced
- Reduction of mecA transcripts (mecA mRNA [6]; NCTC 13142, 5 μM PNA, no oxacillin, normalized to pta and gyrA, average, n = 3): 38%
- MRSA cells killed by oxacillin (NCTC 13142 [5]; 7.5 μM PNA, 6 h at 35 °C, plated on MH agar with 16 μg/ml oxacillin, relative to untreated control): 66%
- Sensitization to oxacillin (CFU reduction), result in words (NCTC 13142 [5]; [12]): significantly sensitized

Compound: KFFKFFKFFK-eg1-AATTACTATA-NH2 [scrZ, scrambled control PNA for anti-ftsZ PNAs conjugated to the (KFF)3K peptide]
- Cell morphology after Gram stain (HH-1 [7]): appeared normal
- Concentration that inhibited growth (NCTC 13142 [8]): not growth inhibitory
- Cell morphology after Gram stain (NCTC 13142 [9]): appeared normal
- Concentration that inhibited growth (HH-1 [10]): 2.5 µM
- CFU reduction of NCTC 13142 (NCTC 13142 [5]; 7.5 μM PNA, 6 h, plated on 16 μg/ml oxacillin, ratio to untreated control, mean, n = 3): 44%

Compound: KFFKFFKFFK-eg1-TTCTAACATT-NH2 [Z19, anti-ftsZ PNA (−1 to +9) conjugated to the (KFF)3K peptide]
- Concentration that inhibited growth (NCTC 13142 [8]): ineffective

Compound: KFFKFFKFFK-eg1-atcaatatcc-CONH2 [A82, anti-mecA PNA (−8 to +2) conjugated to cell-penetrating peptide …]
- Oxacillin MIC with anti-mecA PNA treatment (NCTC 13142 [1]; [11]): 128 µg/mL
- Oxacillin MIC with anti-mecA PNA treatment (HH-1 [2]; [11]): 256 µg/mL

Compound: KFFKFFKFFK-eg1-ttcatcaata-CONH2 [A55, anti-mecA PNA (−5 to +5) conjugated to cell-penetrating peptide …]
- Oxacillin MIC with anti-mecA PNA treatment (NCTC 13142 [1]; [11]): 256 µg/mL
- Oxacillin MIC with anti-mecA PNA treatment (HH-1 [2]; [11]): 512 µg/mL

Compound: MINWKLRLKNK-O-cactataatc-CONH2 [scrA-EJH, scrambled PNA conjugated to EJH-L1 peptide (…)]
- Sensitization to oxacillin in broth microdilution assays (NCTC 13142 [1]): did not have an effect
- Sensitization to oxacillin in broth microdilution assays (HH-1 [2]): did not have an effect

Compound: MINWKLRLKNK-O-catcaatatc-CONH2 [A73-EJH]
- Sensitization to oxacillin in broth microdilution assays (NCTC 13142 [1]): 2 fold
- Sensitization to oxacillin in broth microdilution assays (HH-1 [2]): 2 fold

Compound: YGRKKRRQRRR-O-cactataatc-CONH2 [scrA-Tat, scrambled PNA conjugated to HIV 1-Tat peptide (…)]
- Sensitization to oxacillin in broth microdilution assays (NCTC 13142 [1]): did not have an effect
- Sensitization to oxacillin in broth microdilution assays (HH-1 [2]): did not have an effect

Compound: YGRKKRRQRRR-O-catcaatatc-CONH2 [A73-Tat]
- Sensitization to oxacillin in broth microdilution assays (NCTC 13142 [1]): 2 fold
- Sensitization to oxacillin in broth microdilution assays (HH-1 [2]): 2 fold
